{"source": "PubChem BioAssay AID1963851", "about": "(Molecular Pharmacology Branch, DTP, NCI, 2024)", "system": "188146-221-R-J1-PDC complex spheroid viability", "test": "Anticancer human tumor 188146-221-R-J1-PDC patient-derived colon adenocarcinoma cell line growth inhibition [POLQ]", "conditions": "for pIC50: curve of first compound; for viability, T/C: stronger effect = lower value", "in_short": "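Growth inhibition in 3D: complex spheroids (tumor PDC, HUVEC, MSC) treated with POLQ inhibitor combinations; where Cmax unknown, highest tested concentration 10 microM, except SN-38 at 1 microM.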", "note": "pIC50: −log10 of the molar value.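 Further: spheroids exposed to compounds for seven days.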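 Wherever viability, T/C is given: 100% = DMSO vehicle control viability.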", "data": [{"smiles": "C=CCn1c(=O)c2cnc(Nc3ccc(N4CCN(C)CC4)cc3)nc2n1-c1cccc(C(C)(C)O)n1", "note": "+ COC1C(OC(N)=O)C(O)C(Oc2ccc3c(O)c(NC(=O)c4ccc(O)c(CC=C(C)C)c4)c(=O)oc3c2C)OC1(C)C", "values": [{"measurement": "pIC50", "setting": "second compound 0.0316 µM", "result": "< 6.00"}, {"measurement": "pIC50", "setting": "second compound 0.1 µM", "result": 6.03}, {"measurement": "pIC50", "setting": "second compound 0.316 µM", "result": "< 6.00"}, {"measurement": "pIC50", "setting": "second compound 1 µM", "result": "< 6.00"}, {"measurement": "pIC50", "setting": "second compound 3.16 µM", "result": "< 6.00"}, {"measurement": "pIC50", "setting": "second compound 10 µM", "result": 6.04}, {"measurement": "viability, T/C", "setting": "second compound 0.0316 µM, first compound 0.00316 µM", "result": 106, "unit": "%"}, {"measurement": "viability, T/C", "setting": "second compound 0.0316 µM, first compound 0.01 µM", "result": 99.2, "unit": "%"}, {"measurement": "viability, T/C", "setting": "second compound 0.0316 µM, first compound 0.0316 µM", "result": 103, "unit": "%"}, {"measurement": "viability, T/C", "setting": "second compound 0.0316 µM, first compound 0.1 µM", "result": 101, "unit": "%"}, {"measurement": "viability, T/C", "setting": "second compound 0.0316 µM, first compound 0.316 µM", "result": 98, "unit": "%"}, {"measurement": "viability, T/C", "setting": "second compound 0.0316 µM, first compound 1 µM", "result": 51.5, "unit": "%"}, {"measurement": "viability, T/C", "setting": "second compound 0.1 µM, first compound 0.00316 µM", "result": 111, "unit": "%"}, {"measurement": "viability, T/C", "setting": "second compound 0.1 µM, first compound 0.01 µM", "result": 106, "unit": "%"}, {"measurement": "viability, T/C", "setting": "second compound 0.1 µM, first compound 0.0316 µM", "result": 101, "unit": "%"}, {"measurement": "viability, T/C", "setting": "second compound 0.1 µM, first compound 0.1 µM", "result": 98, "unit": "%"}, {"measurement": "viability, T/C", "setting": "second compound 0.1 µM, first compound 0.316 µM", "result": 91.5, "unit": "%"}, {"measurement": "viability, T/C", "setting": "second compound 0.1 µM, first compound 1 µM", "result": 46.8, "unit": "%"}, {"measurement": "viability, T/C", "setting": "second compound 0.316 µM, first compound 0.00316 µM", "result": 85.1, "unit": "%"}, {"measurement": "viability, T/C", "setting": "second compound 0.316 µM, first compound 0.01 µM", "result": 106, "unit": "%"}, {"measurement": "viability, T/C", "setting": "second compound 0.316 µM, first compound 0.0316 µM", "result": 96.5, "unit": "%"}, {"measurement": "viability, T/C", "setting": "second compound 0.316 µM, first compound 0.1 µM", "result": 101, "unit": "%"}, {"measurement": "viability, T/C", "setting": "second compound 0.316 µM, first compound 0.316 µM", "result": 97.6, "unit": "%"}, {"measurement": "viability, T/C", "setting": "second compound 0.316 µM, first compound 1 µM", "result": 56.3, "unit": "%"}, {"measurement": "viability, T/C", "setting": "second compound 1 µM, first compound 0.00316 µM", "result": 108, "unit": "%"}, {"measurement": "viability, T/C", "setting": "second compound 1 µM, first compound 0.01 µM", "result": 100, "unit": "%"}, {"measurement": "viability, T/C", "setting": "second compound 1 µM, first compound 0.0316 µM", "result": 102, "unit": "%"}, {"measurement": "viability, T/C", "setting": "second compound 1 µM, first compound 0.1 µM", "result": 95.9, "unit": "%"}, {"measurement": "viability, T/C", "setting": "second compound 1 µM, first compound 0.316 µM", "result": 87.7, "unit": "%"}, {"measurement": "viability, T/C", "setting": "second compound 1 µM, first compound 1 µM", "result": 55.2, "unit": "%"}, {"measurement": "viability, T/C", "setting": "second compound 3.16 µM, first compound 0.00316 µM", "result": 102, "unit": "%"}, {"measurement": "viability, T/C", "setting": "second compound 3.16 µM, first compound 0.01 µM", "result": 98.9, "unit": "%"}, {"measurement": "viability, T/C", "setting": "second compound 3.16 µM, first compound 0.0316 µM", "result": 108, "unit": "%"}, {"measurement": "viability, T/C", "setting": "second compound 3.16 µM, first compound 0.1 µM", "result": 98.4, "unit": "%"}, {"measurement": "viability, T/C", "setting": "second compound 3.16 µM, first compound 0.316 µM", "result": 98, "unit": "%"}, {"measurement": "viability, T/C", "setting": "second compound 3.16 µM, first compound 1 µM", "result": 56.3, "unit": "%"}, {"measurement": "viability, T/C", "setting": "second compound 10 µM, first compound 0.00316 µM", "result": 109, "unit": "%"}, {"measurement": "viability, T/C", "setting": "second compound 10 µM, first compound 0.01 µM", "result": 96.9, "unit": "%"}, {"measurement": "viability, T/C", "setting": "second compound 10 µM, first compound 0.0316 µM", "result": 100, "unit": "%"}, {"measurement": "viability, T/C", "setting": "second compound 10 µM, first compound 0.1 µM", "result": 100, "unit": "%"}, {"measurement": "viability, T/C", "setting": "second compound 10 µM, first compound 0.316 µM", "result": 98.1, "unit": "%"}, {"measurement": "viability, T/C", "setting": "second compound 10 µM, first compound 1 µM", "result": 45.6, "unit": "%"}]}]}
